Data on 67 compounds can be found in a melting point compilation (Tetko et al.; mined from patent text by program, amines drawn as free bases though some values may be those of a salt).

By melting point is commonly meant the temperature, or range, at which the solid turns liquid.

Structures are written as SMILES.

Compound `O=c1c2sccc2nc(CNc2ccccc2F)n1-c1ccccc1Cl` had a melting point of 175 to 176 °C.

In turn, `OC(c1ccc(F)cc1)c1cc(Br)cc(Br)c1` (configuration not stated) displayed a melting point of 92 to 93 °C.

With `N#Cc1c(Cl)nc2ccccc2c1Cl`, the melting point was 157 °C.

For the compound `CCOC(=O)C1=C(C)NC(C)=C(C(=O)OCC)C1c1ccc(Cl)cc1Cl`, the melting point was in the range of 148 to 149 °C.

`CCn1nc(C(F)(F)F)c(C)c1O`: the melting point fell in the range of 150 to 152 °C.

As to `O=S(=O)(O)OC[C@H]1Cc2ccccc2CN1`, the melting point was 318 °C.

`CCn1cnc2c(Nc3cccc(N)c3)nc(N[C@H]3CC[C@H](O)CC3)nc21`: the melting point lay in the range of 149 to 151 °C.

For the compound `CSc1ccc(Oc2ccc(C#N)cc2)cc1`, the melting point fell in the range of 65 to 66 °C.

As to `CC(=O)N1CCc2sc(/C=C3/C(=O)N4C(C(=O)O)=CS[C@H]34)cc2C1`, the melting point turned out to be 362 °C.

With `O=C1NC(c2ccc(Cl)cc2)c2ccccc2C1CCN1CCOCC1` (configuration not stated), the melting point lay in the range of 239 to 245 °C.

In turn, `CCCn1c(-c2ccccc2)nc2cc(C(=O)OC)ccc21` returned a melting point of 79.8 °C.

`CSC(=S)N1Cc2[nH]c3ccccc3c2CC1CO` (configuration not stated): the melting point was in the range of 114 to 116 °C.

Take `CSc1nc(N)nc(N)c1-c1ccc(Cl)cc1Cl`: the melting point was in the range of 191 to 192 °C.

As to `CCOC(=O)c1ncc2[nH]c3ccc(C(=O)OCc4ccccc4)cc3c2c1CC`, the melting point was 212 to 215 °C.

As to `Cc1nc(N)c2nc(C)n(CCOc3ccccc3)c2c1C`, the melting point is 176 to 177 °C.

Take `CCOC(=O)c1ncn(-c2nccs2)c1N`: the melting point is 120 to 123 °C.

With `CCOC(=O)c1c(C(F)(F)F)nc(C(F)F)c(C#N)c1CC`, the melting point lay within 38 to 40 °C.

`N#CCC(=O)C(F)(F)C(F)(F)F`: the melting point was in the range of 47 to 54 °C.

As to `Cc1cc(C2CC(C)(C)CC(C)(C)C2=O)ccc1F` (configuration not stated), the melting point is 63 to 64 °C.

Regarding `O=S(=O)(O)c1cncc(Br)c1`, the melting point is over 300 °C.

In turn, `COc1nc(NCn2nnc3ccccc32)nc(N(C)C)n1` gave a melting point of 222 to 224 °C.

`COc1cc(Nc2ncc([N+](=O)[O-])c(-c3ccccc3)n2)cc(OC)c1OC`: the melting point was in the range of 103 to 105 °C.

`CCOc1cc(Oc2cc(C)[nH]n2)ccc1[N+](=O)[O-]` yielded a melting point of 123 to 124 °C.

Compound `CC(=O)OC1CSC(Oc2cccc3onc(C)c23)C(OC(C)=O)C1OC(C)=O` (configuration not stated) yielded a melting point of 155 to 158 °C.

With `CS(=O)(=O)c1ccc(-c2sc(-c3ccncc3)nc2-c2ccc(F)cc2)cc1`, the melting point lay within 171 to 176 °C.

Take `CCn1c(CCCO)nc(C(C)C)c1Sc1cc(Cl)cc(Cl)c1`: the melting point is 73 °C.

`COC(=O)C[C@@H]1C(=O)NC[C@H](Cc2cc(F)ccc2OC)C(=O)N1S(=O)(=O)c1ccc(Cl)cc1` had a melting point of 73 to 76 °C.

In turn, `COc1ccc(CN(C)CCc2ccc(NC(=O)c3cccc4c(=O)c5cccc([N+](=O)[O-])c5[nH]c34)cc2)cc1OC` had a melting point of 197 °C.

`O=C1Nc2ccccc2SC(c2ccccc2)C1CO` (configuration not stated) yielded a melting point of 248 °C.

The compound `O=C1SCC(O)=C1Cc1ccc(Cl)c(Cl)c1` had a melting point of 239 to 240 °C.

`COc1ccc(C2(c3ccc(N(C)C)cc3)OC(=O)c3cc(N(C)C)ccc32)c(OC)c1` (configuration not stated) yielded a melting point of 192 to 194 °C.

Compound `O=C1C(=Cc2ccc(Cl)s2)CCc2cc(OCCn3ccnc3)ccc21` had a melting point of 143 to 144 °C.

`CCn1c(C#N)ccc1-c1ccc2c(c1)C(C)(C)OC(=O)N2`: the melting point was 200 to 202 °C.

As to `Cc1noc([C@@]2(C)CC[C@@H](NCC(=O)N3C[C@@H](F)C[C@H]3C#N)C2(C)C)n1`, the melting point was in the range of 137 to 141 °C.

For `CCCSc1sc(C(=O)NC)c2c1-c1c(cnn1CC(F)(F)F)CC2`, the melting point lay within 75 to 76 °C.

On to `CCn1c(-c2ccc(OC)c(OC)c2)cc(=O)n(CC)c1=O`, for which the melting point is 104 to 107 °C.

In the case of `Clc1ccccc1-c1nc(Cl)c2ccccc2n1`, the melting point fell in the range of 127 to 129 °C.

The compound `CCCCCC1CCc2c(c(F)c(F)c3oc(C4CCC(CCC)CC4)cc23)O1` (configuration not stated) gave a melting point of 101 °C.

`Brc1ccc2c(Br)c3cc(Br)ccc3c(Br)c2c1` registered a melting point of 293 to 296 °C.

With `O=C1Nc2ccc([N+](=O)[O-])cc2/C1=C(/Nc1ccc(CN2CCCC2)cc1)c1ccccc1`, the melting point was in the range of 45 to 50 °C.

As to `CCCCC[C@H]1CC[C@H](c2ccc(F)c(F)c2)CC1`, the melting point was -9.5 °C.

Consider `NCc1ccc(CNc2ncc3ncnc(Nc4ccc(F)c(Cl)c4)c3n2)cc1`, for which the melting point lay within 211 to 213 °C.

Regarding `O=[N+]([O-])c1cc(I)ccc1Nc1cccc(-c2ccccn2)c1`, the melting point is 195 to 196 °C.

As for `Cc1c(C(=O)O)c(CC(=O)O)n(C)c1C(=O)c1cccnc1`, the melting point was in the range of 186 to 188 °C.

Take `Cc1cccc2[nH]c(=O)n(CCCN3CC=C(c4ccc(Cl)cc4)CC3)c(=O)c12`: the melting point lay in the range of 175 to 178 °C.

Compound `CN1C(=O)[C@H](N)N=C(C2CCCCC2)c2ccccc21` displayed a melting point of 130 to 133 °C.

In turn, `C=Cc1cc(O)cc2nc(-c3ccc(O)c(F)c3F)oc12` registered a melting point of 276 to 278 °C.

As to `COc1c(F)cc(Cn2cc[nH]c2=S)cc1F`, the melting point was in the range of 156 to 158 °C.

The compound `O=C(NCCc1ccc(O)cc1)c1cccnc1` registered a melting point of 179 to 181 °C.

In the case of `C=CCC1COC(CC)(CC(=O)OC)c2[nH]c3c(CC)cccc3c21` (configuration not stated), the melting point lay in the range of 92 to 93 °C.

The compound `COCc1nc(-c2ccc(C(F)(F)F)cc2)ncc1COc1ccc(OC(C)(C)C(=O)O)c(C)c1` returned a melting point of 120 to 121 °C.

The compound `Fc1ccc(NC(=S)NN2CC=C(c3ccccc3)CC2)cc1` came in with a melting point of 192 to 194 °C.

The compound `Clc1ccc2nc(CN3CCN(c4ccccc4Cl)CC3)cn2c1` yielded a melting point of 123 to 124 °C.

The compound `COC(=N)Nc1ccc(C(F)(F)F)cc1` gave a melting point of 121 to 123 °C.

On to `C#CCOc1nc(-c2ccc(OC)cc2)n(-c2ccc(OC)cc2)n1`, for which the melting point was 81 to 82 °C.

Take `COc1ccccc1CNc1ccc2cc(Nc3nnc(C(F)(F)F)o3)ccc2n1`: the melting point came to 198 °C.

In turn, `Cc1cc2c3c(cc(C)c2[nH]c1=O)CC(CBr)O3` (configuration not stated) yielded a melting point of 277 to 278 °C.

Turning to `CCCn1nc2c(NC)nc3ccccc3c2c1N`, the melting point fell in the range of 200 to 201 °C.

Take `O=C1N(Cc2cccc(C(F)(F)F)n2)c2ccccc2C12COc1cc3c(cc12)OCCO3` (configuration not stated): the melting point lay in the range of 195 to 196 °C.

`CCOc1c(C(C)=O)cnc2[nH]ncc12` came in with a melting point of 245 to 248 °C.

In the case of `CN1CCN(Cc2ccccc2F)C(C2=NCCN2)C1` (configuration not stated), the melting point was 160 to 162 °C.

In the case of `CN1C(=O)C(c2cccc(-c3cncnc3)c2)(c2cc(C#N)n(C)c2)N=C1N` (configuration not stated), the melting point was 214 to 225 °C.

`NC(=O)CNC(=O)c1cncc(-c2cccc3cc(Cc4cc(F)cc(Cl)c4)sc23)c1` registered a melting point of 176 to 177 °C.

Take `CC(=O)Nc1ccc(F)cc1C`: the melting point is 131 to 132 °C.

Consider `CCCSC1=Nc2ccccc2SN1`, for which the melting point is 168 to 170 °C.

Compound `CS(=O)(=O)N(CCc1ccc(Cl)cc1)Cc1cccnc1` gave a melting point of 77 to 78 °C.

`NC(=O)c1cc(-c2ccnc(Nc3cccc(Cl)c3)n2)ccn1` came in with a melting point of 245 to 247 °C.
